Assay results from patent US20250339567A1, “COMPOUNDS WITH IMPROVED PHARMACOKINETICS FOR IMAGING AND THERAPY OF CANCER” (priority 2019, published 2025).
Where two headings read alike, the source gives them in different places. Starred links: 1 amine or outer side, 2 acyl side, 3 side chain; linkers in the order of their positions; H or OH if unused. Non-standard residues stand in square brackets, D forms with d. Residues, ends and D or L forms follow the SMILES beside them. *: point of attachment. DOTA = O=C(O)CN1CCN(CC(=O)O)CCN(CC(=O)*)CCN(CC(=O)O)CC1; αMeW = C[C@](N)(Cc1c[nH]c2ccccc12)C(=O)O; Sta = CC(C)C[C@H](N)[C@@H](O)CC(=O)O; Bta = N[C@@H](Cc1csc2ccccc12)C(=O)O; Gly(cPent) = N[C@H](C(=O)O)C1CCCC1; X1 = O=C(CN1CCC(N[*:1])CC1)[*:2]; Chg = N[C@H](C(=O)O)C1CCCCC1; dOrn = NCCC[C@@H](N)C(=O)O; hSer = N[C@@H](CCO)C(=O)O; Nle = CCCC[C@H](N)C(=O)O; dDap = NC[C@@H](N)C(=O)O; βAla = NCCC(=O)O

Experiments:
[1] = Plasma studies: metabolic stability in vitro in human plasma (radio RP-HPLC); format: in vitro ADME
Method: Metabolic stability in vitro was determined applying a procedure published by Linder et al. that was slightly modified. Immediately after labeling, human (200 μL) or murine (100 μL) plasma was added and the mixture was incubated at 37° C. for 72±2 h (or 6±0.5 h). Proteins were precipitated by treatment with ice-cold EtOH (150 μL [human], 100 μL [murine]) and ice-cold MeCN (450 μL [human], 300 μL [murine]), followed by centrifugation for 20 min at 13000 rpm. The supernatants were decanted and further analyzed using radio RP-HPLC. […]

GRPR = molecular target: T1, GRPR (Homo sapiens, UniProt P30550); experiment: Determination of GRPR affinity (IC50), competition with [D-3-[125I]I-Tyr6]MJ9 on PC-3 cells; format: binding
T1 construct: endogenous in cells; host or cells: PC-3 cells
Method: The reference ligand for IC50 studies ([D-3-[^125I]I-Tyr^6]MJ9) is prepared according to a previously published procedure. Briefly, 0.2 mg of [D-Tyr^6]MJ9 are dissolved in 20 μL Tracepur water and 280 μL TRIS buffer (25 mm TRIS HCl, 0.4 M NaCl, pH=7.9). After addition of the solution to a vial containing 150 μg Iodo-Gen® (1,3,4,6-Tetrachloro-3α,6α-diphenylglycouril, surface-bound), 5.0 μL (16 MBq) [^125I]Nal(74 TBq/mmol, 3.1 GBq/mL, 40 mM NaOH, Hartmann Analytic, Braunschweig, Germany) are added.
The GRPR-positive PC-3 cells are cultured in Dublecco modified Eagle medium/Nutrition Mixture F-12 with Glutamax-I (1:1) (Invitrigon), supplemented with 10% fetal calf serum and maintained at 37° C. in a humidified 5% CO2 atmosphere.
After removal of the culture medium, the cells are washed once with 500 μL of HBSS (Hank's balanced salt solution, Biochrom, Berlin, Germany, with addition of 1% bovine serum albumin (BSA)) and left in 200 μL HBSS (1% BSA) for 9 min at room temperature for equilibration. Next, 25 μL per well of solutions, containing either HBSS (1% BSA) as control or the respective ligand in increasing concentration (10^−10 M-10^−4 M in HBSS), are added with subsequent addition of 25 μL of [D-3-[^125I]I-Tyr^6]MJ9 (2.0 nM) in HBSS (1% BSA).
All experiments are performed in triplicate for each concentration. After 2 h incubation at room temperature, the experiment is terminated by removal of the medium and consecutive rinsing with 300 μL of HBSS. The media of both steps are combined in one fraction and represent the amount of free radiolabeled reference. Afterwards, the cells are lysed with 300 μL of 1 M NaOH for at least 15 min and united with the 300 μL NaOH of the following washing step. Quantification of bound and free radiolabeled reference is accomplished in a γ-counter.
IC50 determination for each ligand was repeated twice.

T1 sequence (P30550 whole entry): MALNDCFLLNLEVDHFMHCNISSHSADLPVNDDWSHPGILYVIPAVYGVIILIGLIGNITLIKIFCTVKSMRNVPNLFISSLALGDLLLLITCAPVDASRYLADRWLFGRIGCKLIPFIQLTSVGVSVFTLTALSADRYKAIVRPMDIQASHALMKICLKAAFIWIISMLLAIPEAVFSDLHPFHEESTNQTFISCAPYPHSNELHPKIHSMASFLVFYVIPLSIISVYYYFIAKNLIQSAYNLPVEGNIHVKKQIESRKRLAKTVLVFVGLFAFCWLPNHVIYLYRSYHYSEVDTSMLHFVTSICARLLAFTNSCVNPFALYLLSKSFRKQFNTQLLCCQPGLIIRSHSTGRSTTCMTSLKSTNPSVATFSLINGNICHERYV

| Amount of intact tracer after incubation in human plasma for 72 ± 2 h (n = 2) [1] | further results | Structure (SMILES) |
| --- | --- | --- |
| 18.2 ± 1.9 |  | CC(C)C[C@H](NC(=O)C[C@H](O)[C@H](CC(C)C)NC(=O)[C@H](Cc1c[nH]cn1)NC(=O)CNC(=O)[C@@H](NC(=O)[C@H](C)NC(=O)[C@H](Cc1c[nH]c2ccccc12)NC(=O)[C@H](CCO)NC(=O)[C@@H](CCCNC(=N)N)NC(=O)CN1CCC(NC(=O)CN2CCN(CC(=O)O)CCN(CC(=O)O)CCN(CC(=O)O)CC2)CC1)C(C)C)C(N)=O [DOTA-[arg^6, Hse^7]MJ9] ({DOTA}-[X1][dR][hSer]WAVGH[Sta]L-NH2) |
| 20.1 ± 0.7 |  | CC(C)C[C@H](NC(=O)C[C@H](O)[C@H](CC(C)C)NC(=O)[C@H](Cc1c[nH]cn1)NC(=O)CNC(=O)[C@@H](NC(=O)[C@H](C)NC(=O)[C@](C)(Cc1c[nH]c2ccccc12)NC(=O)[C@H](CCC(N)=O)NC(=O)[C@@H](CCCNC(=N)N)NC(=O)CN1CCC(NC(=O)CN2CCN(CC(=O)O)CCN(CC(=O)O)CCN(CC(=O)O)CC2)CC1)C(C)C)C(N)=O [DOTA-[arg^6, α-Me-Trp^8]MJ9] ({DOTA}-[X1][dR]Q[αMeW]AVGH[Sta]L-NH2) |
| 13.5 ± 3.4 |  | CC(C)C[C@H](NC(=O)C[C@H](O)[C@H](CC(C)C)NC(=O)[C@H](Cc1c[nH]cn1)NC(=O)CNC(=O)[C@@H](NC(=O)[C@H](C)NC(=O)[C@H](Cc1c[nH]c2ccccc12)NC(=O)[C@H](CCC(N)=O)NC(=O)[C@@H](CCCNC(=N)N)NC(=O)CN1CCC(NC(=O)CN2CCN(CC(=O)O)CCN(CC(=O)O)CCN(CC(=O)O)CC2)CC1)C(C)C)C(N)=O [DOTA-[arg^6]MJ9] ({DOTA}-[X1][dR]QWAVGH[Sta]L-NH2) |
| 22.6 ± 1.9 |  | CC(C)C[C@H](NC(=O)C[C@H](O)[C@H](CC(C)C)NC(=O)[C@H](Cc1c[nH]cn1)NC(=O)CNC(=O)[C@@H](NC(=O)[C@H](C)NC(=O)[C@](C)(Cc1c[nH]c2ccccc12)NC(=O)[C@H](CCC(N)=O)NC(=O)[C@@H](Cc1ccccc1)NC(=O)CN1CCC(NC(=O)CN2CCN(CC(=O)O)CCN(CC(=O)O)CCN(CC(=O)O)CC2)CC1)C1CCCCC1)C(N)=O [DOTA-[α-Me-Trp^8, Chg^10]MJ9] ({DOTA}-[X1][dF]Q[αMeW]A[Chg]GH[Sta]L-NH2) |
| 25.5 ± 1.9 |  | CC(C)C[C@H](NC(=O)C[C@H](O)[C@H](CC(C)C)NC(=O)[C@H](Cc1c[nH]cn1)NC(=O)CNC(=O)[C@@H](NC(=O)[C@H](C)NC(=O)[C@](C)(Cc1c[nH]c2ccccc12)NC(=O)[C@H](CCC(N)=O)NC(=O)[C@@H](Cc1ccccc1)NC(=O)CN1CCC(NC(=O)CN2CCN(CC(=O)O)CCN(CC(=O)O)CCN(CC(=O)O)CC2)CC1)C1CCCC1)C(N)=O [DOTA-[α-Me-Trp^8, Cpg^10]MJ9] ({DOTA}-[X1][dF]Q[αMeW]A[Gly(cPent)]GH[Sta]L-NH2) |
| 14.3 ± 1.2 |  | CC(C)C[C@H](NC(=O)C[C@H](O)[C@H](CC(C)C)NC(=O)[C@H](Cc1c[nH]cn1)NC(=O)CN(C)C(=O)[C@@H](NC(=O)[C@H](C)NC(=O)[C@](C)(Cc1c[nH]c2ccccc12)NC(=O)[C@H](CCC(N)=O)NC(=O)[C@@H](Cc1ccccc1)NC(=O)CN1CCC(NC(=O)CN2CCN(CC(=O)O)CCN(CC(=O)O)CCN(CC(=O)O)CC2)CC1)C(C)C)C(N)=O [DOTA-[α-Me-Trp^8, N—Me-Gly^11]MJ9] |
| 22.1 ± 2.2 |  | CC(C)C[C@H](NC(=O)C[C@H](O)[C@H](CC(C)C)NC(=O)[C@H](Cc1c[nH]cn1)NC(=O)CNC(=O)[C@@H](NC(=O)[C@H](CO)NC(=O)[C@](C)(Cc1c[nH]c2ccccc12)NC(=O)[C@H](CCC(N)=O)NC(=O)[C@@H](Cc1ccccc1)NC(=O)CN1CCC(NC(=O)CN2CCN(CC(=O)O)CCN(CC(=O)O)CCN(CC(=O)O)CC2)CC1)C(C)C)C(N)=O [DOTA-[α-Me-Trp^8, Ser^9]MJ9] ({DOTA}-[X1][dF]Q[αMeW]SVGH[Sta]L-NH2) |
| 10.2 ± 2.7 |  | CCCC[C@H](NC(=O)[C@H](Cc1ccccc1)NC(=O)[C@H](Cc1c[nH]cn1)NC(=O)CCNC(=O)[C@@H](NC(=O)[C@H](C)NC(=O)[C@](C)(Cc1c[nH]c2ccccc12)NC(=O)[C@H](CCC(N)=O)NC(=O)[C@@H](Cc1ccccc1)NC(=O)CN1CCN(CC(=O)O)CCN(CC(=O)O)CCN(CC(=O)O)CC1)C(C)C)C(N)=O [DOTA-[α-Me-Trp^8]UL] ({DOTA}-[dF]Q[αMeW]AV[βAla]HF[Nle]-NH2) |
| 5.9 ± 0.5 |  | CC(C)C[C@H](NC(=O)C[C@H](O)[C@H](CC(C)C)NC(=O)[C@H](Cc1c[nH]cn1)NC(=O)CNC(=O)[C@@H](NC(=O)[C@H](C)NC(=O)[C@H](Cc1c[nH]c2ccccc12)NC(=O)[C@H](CCC(N)=O)NC(=O)[C@@H](Cc1ccccc1)NC(=O)CN1CCC(NC(=O)[C@@H](CN)NC(=O)[C@@H](CCCN)NC(=O)CN2CCN(CC(=O)O)CCN(CC(=O)O)CCN(CC(=O)O)CC2)CC1)C(C)C)C(N)=O [DOTA-orn^3-dap^4-MJ9] ({DOTA}-[dOrn][dDap][X1][dF]QWAVGH[Sta]L-NH2) |
| 2.7 ± 0.3 |  | CC(C)C[C@H](NC(=O)C[C@H](O)[C@H](CC(C)C)NC(=O)[C@H](Cc1c[nH]cn1)NC(=O)CNC(=O)[C@@H](NC(=O)[C@H](C)NC(=O)[C@H](Cc1csc2ccccc12)NC(=O)[C@H](CCC(N)=O)NC(=O)[C@@H](Cc1ccccc1)NC(=O)CN1CCC(NC(=O)[C@@H](CN)NC(=O)[C@@H](CCCN)NC(=O)CN2CCN(CC(=O)O)CCN(CC(=O)O)CCN(CC(=O)O)CC2)CC1)C(C)C)C(N)=O [DOTA-orn^3-dap^4-[Bta^8]MJ9] ({DOTA}-[dOrn][dDap][X1][dF]Q[Bta]AVGH[Sta]L-NH2) |
| 7.9 ± 2.5 |  | CC(C)C[C@H](NC(=O)C[C@H](O)[C@H](CC(C)C)NC(=O)[C@H](Cc1c[nH]cn1)NC(=O)CNC(=O)[C@@H](NC(=O)[C@H](C)NC(=O)[C@H](Cc1c[nH]c2ccccc12)NC(=O)[C@H](CCO)NC(=O)[C@@H](Cc1ccccc1)NC(=O)CN1CCC(NC(=O)[C@@H](CN)NC(=O)[C@@H](CCCN)NC(=O)CN2CCN(CC(=O)O)CCN(CC(=O)O)CCN(CC(=O)O)CC2)CC1)C(C)C)C(N)=O [DOTA-orn^3-dap^4-[Hse^7]MJ9] ({DOTA}-[dOrn][dDap][X1][dF][hSer]WAVGH[Sta]L-NH2) |
| 16.6 ± 0.8 |  | CC(C)C[C@H](NC(=O)C[C@H](O)[C@H](CC(C)C)NC(=O)[C@H](Cc1c[nH]cn1)NC(=O)CNC(=O)[C@@H](NC(=O)[C@H](C)NC(=O)[C@](C)(Cc1c[nH]c2ccccc12)NC(=O)[C@H](CCC(N)=O)NC(=O)[C@@H](Cc1ccccc1)NC(=O)CN1CCC(NC(=O)[C@@H](CN)NC(=O)[C@@H](CCCN)NC(=O)CN2CCN(CC(=O)O)CCN(CC(=O)O)CCN(CC(=O)O)CC2)CC1)C(C)C)C(N)=O [DOTA-orn^3-dap^4-[α-Me-Trp^8]MJ9] ({DOTA}-[dOrn][dDap][X1][dF]Q[αMeW]AVGH[Sta]L-NH2) |
| 4.3 ± 0.2 |  | CCCC[C@H](NC(=O)[C@H](Cc1ccccc1)NC(=O)[C@H](Cc1c[nH]cn1)NC(=O)CCNC(=O)[C@@H](NC(=O)[C@H](C)NC(=O)[C@H](Cc1c[nH]c2ccccc12)NC(=O)[C@H](CCC(N)=O)NC(=O)[C@@H](Cc1ccccc1)NC(=O)CN1CCN(CC(=O)O)CCN(CC(=O)O)CCN(CC(=O)O)CC1)C(C)C)C(N)=O [UL, reference compound] ({DOTA}-[dF]QWAV[βAla]HF[Nle]-NH2) |
|  | IC50 (GRPR; IC50 ± SD (n = 3), Table 3, [D-3-[125I]I-Tyr6]MJ9 (c = 0.2 nM), 2 h, r.t., HBSS + 1% BSA): 3.06 ± 0.15 nM | CC(C)C[C@H](NC(=O)C[C@H](O)[C@H](CC(C)C)NC(=O)[C@H](Cc1c[nH]cn1)NC(=O)CNC(=O)[C@@H](NC(=O)[C@H](C)NC(=O)[C@H](Cc1csc2ccccc12)NC(=O)[C@H](CCC(N)=O)NC(=O)[C@@H](Cc1ccccc1)NC(=O)CN1CCC(NC(=O)CN2CCN(CC(=O)O)CCN(CC(=O)O)CCN(CC(=O)O)CC2)CC1)C(C)C)C(N)=O [[^natGa]DOTA-[Bta^8]MJ9, metal not drawn] ({DOTA}-[X1][dF]Q[Bta]AVGH[Sta]L-NH2) |
|  | IC50 (GRPR; read-out: IC50 ± SD (n = 3), Table 3, [D-3-[125I]I-Tyr6]MJ9 (c = 0.2 nM), 2 h, r.t., HBSS + 1% BSA): 12.2 ± 0.2 nM | CC(C)C[C@H](NC(=O)C[C@H](O)[C@H](CC(C)C)NC(=O)[C@H](Cc1c[nH]cn1)NC(=O)CNC(=O)[C@@H](NC(=O)[C@H](C)NC(=O)[C@H](Cc1c[nH]c2ccccc12)NC(=O)[C@H](CCO)NC(=O)[C@@H](Cc1ccccc1)NC(=O)CN1CCC(NC(=O)CN2CCN(CC(=O)O)CCN(CC(=O)O)CCN(CC(=O)O)CC2)CC1)C(C)C)C(N)=O [[^natGa]DOTA-[Hse^7]MJ9, metal not drawn] |
